Results from ChEMBL document CHEMBL1201862, “PubChem BioAssay data set” (2004).
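Tested at 5 concentrations; 48 h exposure; 96-well plates; endpoints linearly interpolated, else capped at highest concentration. GI50: concentration for 50% inhibition of growth.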 The source made the active and inactive calls. No stated cut-off is given here; in the data, active = GI50 up to about 1.1 µM and inactive = higher.

How the values were obtained:
Experiment in all cases: growth of human tumour cells (NCI), 48 h
786-0 = system: 786-0
A498 = system: A498
A549 = system: A549
ACHN = system: ACHN
BT-549 = system: BT-549
CCRF-CEM = system: CCRF-CEM
COLO 205 = system: COLO 205
DU-145 = system: DU-145
EKVX = system: EKVX
HCC 2998 = system: HCC 2998
HCT-116 = system: HCT-116
HCT-15 = system: HCT-15
HL-60 = system: HL-60
HOP-62 = system: HOP-62
HOP-92 = system: HOP-92
HT-29 = system: HT-29
Hs-578T = system: Hs-578T
IGROV-1 = system: IGROV-1
K562 = system: K562
LOX IMVI = system: LOX IMVI
M14 = system: M14
MCF7 = system: MCF7
MDA-MB-231 = system: MDA-MB-231
MDA-N = system: MDA-N
MOLT-4 = system: MOLT-4
Malme-3M = system: Malme-3M
NCI-H226 = system: NCI-H226
NCI-H23 = system: NCI-H23
NCI-H460 = system: NCI-H460
NCI-H522 = system: NCI-H522
NCI/ADR-RES = system: NCI/ADR-RES
OVCAR-3 = system: OVCAR-3
OVCAR-5 = system: OVCAR-5
OVCAR-8 = system: OVCAR-8
PC-3 = system: PC-3
RPMI-8226 = system: RPMI-8226
RXF 393 = system: RXF 393
SF-268 = system: SF-268
SF-295 = system: SF-295
SF-539 = system: SF-539
SK-MEL-28 = system: SK-MEL-28
SK-MEL-2 = system: SK-MEL-2
SK-MEL-5 = system: SK-MEL-5
SK-OV-3 = system: SK-OV-3
SN12C = system: SN12C
SNB-19 = system: SNB-19
SNB-75 = system: SNB-75
SW-620 = system: SW-620
T47D = system: T47D
TK-10 = system: TK-10
U-251 = system: U-251
UACC-257 = system: UACC-257
UACC-62 = system: UACC-62

CCN(CC)C(=S)SC [METHYLDIETHYL CARBAMODITHIOATE]
GI50 (786-0): > 100 µM (inactive)
GI50 (A498): > 100 µM (inactive)
GI50 (A549): > 100 µM (inactive)
GI50 (ACHN): > 100 µM (inactive)
GI50 (BT-549): > 100 µM (inactive)
GI50 (CCRF-CEM): > 100 µM (inactive)
GI50 (COLO 205): > 100 µM (inactive)
GI50 (DU-145): > 100 µM (inactive)
GI50 (EKVX): > 100 µM (inactive)
GI50 (HCC 2998): > 100 µM (inactive)
GI50 (HCT-116): > 100 µM (inactive)
GI50 (HCT-15): > 100 µM
GI50 (HL-60): > 100 µM (inactive)
GI50 (HOP-62): > 100 µM (inactive)
GI50 (HOP-92): > 100 µM (inactive)
GI50 (HT-29): > 100 µM (inactive)
GI50 (Hs-578T): > 100 µM (inactive)
GI50 (IGROV-1): > 100 µM (inactive)
GI50 (K562): > 100 µM (inactive)
GI50 (LOX IMVI): > 100 µM (inactive)
GI50 (M14): > 100 µM (inactive)
GI50 (MCF7): > 100 µM (inactive)
GI50 (MDA-MB-231): > 100 µM (inactive)
GI50 (MDA-N): > 100 µM (inactive)
GI50 (MOLT-4): > 100 µM (inactive)
GI50 (Malme-3M): > 100 µM (inactive)
GI50 (NCI-H226): > 100 µM (inactive)
GI50 (NCI-H23): > 100 µM (inactive)
GI50 (NCI-H460): > 100 µM (inactive)
GI50 (NCI-H522): > 100 µM (inactive)
GI50 (NCI/ADR-RES): > 100 µM (inactive)
GI50 (OVCAR-3): > 100 µM (inactive)
GI50 (OVCAR-5): > 100 µM (inactive)
GI50 (OVCAR-8): > 100 µM (inactive)
GI50 (PC-3): 52.5 µM (inactive)
GI50 (RPMI-8226): > 100 µM (inactive)
GI50 (RXF 393): > 100 µM (inactive)
GI50 (SF-268): > 100 µM (inactive)
GI50 (SF-295): > 100 µM (inactive)
GI50 (SF-539): > 100 µM (inactive)
GI50 (SK-MEL-28): > 100 µM (inactive)
GI50 (SK-MEL-2): > 100 µM (inactive)
GI50 (SK-MEL-5): > 100 µM (inactive)
GI50 (SK-OV-3): > 100 µM (inactive)
GI50 (SN12C): > 100 µM (inactive)
GI50 (SNB-19): > 100 µM (inactive)
GI50 (SNB-75): > 100 µM (inactive)
GI50 (SW-620): > 100 µM (inactive)
GI50 (T47D): > 100 µM (inactive)
GI50 (TK-10): > 100 µM (inactive)
GI50 (U-251): > 100 µM (inactive)
GI50 (UACC-257): > 100 µM (inactive)
GI50 (UACC-62): > 100 µM (inactive)
